Source: patent US20220296526A1, “CANNABINOID COMPOSITIONS, METHODS OF MAKING SAME AND USES THEREOF” (HEXO OPERATIONS INC., priority 2019, published 2022)
Where “and” joins values, the source holds several entries; their conditions need not be identical. Equal values may be shown once.

Assay: DLS particle size tracking around spray drying (nanoemulsion, solubilized carrier, pre-spray dried mixture, re-hydrated powder)
Type: physicochemical
Details: solubilized carrier alone, 0.4 g/ml
Experimental: Particle size of all nanoemulsions was measured in water solution at 25° C. using dynamic light scattering (DLS). All samples in the present disclosure have been analyzed at a dilution of 1/20 in purified water using a LiteSizer™ (Anton Paar GmbH, Germany).
The resulting spray dried emulsion powder was analyzed by performing a rehydration and then performing a visual inspection for turbidity and DLS analysis for particle size tracking of the generated emulsion (see Table 9).

OC[C@@H](O)[C@@H](O)[C@H](O)[C@H](O)CO [Pearlitol (Mannitol), Mannitol]
Particle Size Carrier: 287 nm, poor signal and 225 nm, poor signal
